Assay results: patent publication US20050170391A1, “TAUT1 transporters expressed in blood brain barrier cells” (Xenoport, Inc., priority 2004, published 2005)

Experiments:
[1] = target: T1, mouse homolog of the transporter (TAUT1) (Mus musculus, UniProt O35316); conditions: literature IC50, mouse homolog of the transporter; read-out: Literature Km or IC50; cited from earlier work
T1 sequence (O35316 1-621): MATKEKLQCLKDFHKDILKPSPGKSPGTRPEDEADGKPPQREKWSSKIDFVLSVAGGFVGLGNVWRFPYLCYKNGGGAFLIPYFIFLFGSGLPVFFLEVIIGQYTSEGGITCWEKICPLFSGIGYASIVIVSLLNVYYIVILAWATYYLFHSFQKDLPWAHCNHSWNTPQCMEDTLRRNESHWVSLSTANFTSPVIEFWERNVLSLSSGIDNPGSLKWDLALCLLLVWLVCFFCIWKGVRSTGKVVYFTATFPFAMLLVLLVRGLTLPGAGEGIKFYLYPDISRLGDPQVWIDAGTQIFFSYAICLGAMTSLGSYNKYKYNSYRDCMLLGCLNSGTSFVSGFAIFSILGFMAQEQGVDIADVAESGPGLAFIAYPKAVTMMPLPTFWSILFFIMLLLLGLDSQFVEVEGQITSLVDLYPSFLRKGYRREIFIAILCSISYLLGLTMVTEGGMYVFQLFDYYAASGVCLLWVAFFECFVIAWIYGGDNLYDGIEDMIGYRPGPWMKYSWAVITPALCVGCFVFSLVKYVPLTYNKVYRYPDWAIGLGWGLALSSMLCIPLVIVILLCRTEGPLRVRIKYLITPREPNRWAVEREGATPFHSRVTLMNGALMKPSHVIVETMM

TAUT1 = target: T2, TAUT1 (Homo sapiens, UniProt P31641); test: hTAUT1 competition uptake assay in HEK-TREx-TAUT1 cells; type: cell-based; parameters: expressed in transfected cells; host or cells: HEK-TREx cells (HEK-TREx-TAUT1 inducible line); conditions: HEK-TREx-TAUT1 cells induced with tetracycline; ^3H-GABA radiolabel (taurine: ^3H-taurine per Example 9); 15 min, room temperature
T2 sequence (P31641 1-620): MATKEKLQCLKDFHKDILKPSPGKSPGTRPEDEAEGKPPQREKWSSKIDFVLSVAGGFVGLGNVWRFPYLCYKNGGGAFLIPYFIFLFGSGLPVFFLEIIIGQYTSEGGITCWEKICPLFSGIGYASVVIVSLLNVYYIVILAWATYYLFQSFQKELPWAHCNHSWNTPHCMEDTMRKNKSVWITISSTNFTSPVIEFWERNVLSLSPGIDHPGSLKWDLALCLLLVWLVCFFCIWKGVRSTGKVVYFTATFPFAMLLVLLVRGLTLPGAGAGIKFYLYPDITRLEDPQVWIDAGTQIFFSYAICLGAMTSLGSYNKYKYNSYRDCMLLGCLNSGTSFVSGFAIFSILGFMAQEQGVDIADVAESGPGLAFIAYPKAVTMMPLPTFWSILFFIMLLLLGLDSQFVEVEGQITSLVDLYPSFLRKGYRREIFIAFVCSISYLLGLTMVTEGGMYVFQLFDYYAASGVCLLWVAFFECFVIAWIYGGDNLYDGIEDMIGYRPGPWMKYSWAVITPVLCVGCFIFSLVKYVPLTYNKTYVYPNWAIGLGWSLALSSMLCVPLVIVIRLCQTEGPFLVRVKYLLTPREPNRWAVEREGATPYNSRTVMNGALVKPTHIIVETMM
Experimental: A modified competition uptake assay was developed to determine the ability of a test compound(s) to inhibit the uptake of radiolabeled substrates into HEK-TREx-TAUT1 cells induced to over-express hTAUT. The results are stated as affinities (IC50).
The competition uptake assay were prepared as follows: Compounds were prepared for assay by diluting a 100 mM stock concentration (in DMSO) to the appropriate working concentration. Typically, seven-point dose response curves were prepared starting at a final assay concentration of 1 mM and carrying out three-fold dilutions. These dilutions were prepared by making a working “compound” plate that contained a 2× solution of the desired starting concentration of each test compound in duplicate in row A of a v-bottom microtiter plate. Six 3-fold serial dilutions (from row B to G) were made into the HBSS assay buffer (9.8 g/L Hank's Balance Salts (Sigma; H-1387), 2.6 g/L HEPES (10 mM) (Sigma; H-3375), 0.35 g/L NaHCO3 (4.2 mM) (Sigma; S-6297), pH to 7.4 with 5N NaOH) (with the appropriate amount of DMSO so that the DMSO concentration remains constant at all dilutions). The resulting “compound” plate contained serial dilutions of six compounds in duplicate.
^3H-GABA was diluted into HBSS buffer to a final concentration of 4,000 cpm/μl. Enough solution was prepared to allow addition of 25 μl/well (the final concentration was 100,000 cpm/well).
HEK-TREx-hTAUT cells, plated in 96-well plates and treated with tetracycline (or tet analog (e.g., doxycycline), were removed from the incubator. Growth media was removed from the cells, and the cells were washed twice in room temperature HBSS (100 μl/well/wash) using a 96-well plate washer (Bio Tek ELX405). Alternatively, cells were washed manually with equivalent volumes using a multichannel pipettor. Immediately before beginning the assay, the final 100 μl wash solution was removed from the cells by aspiration.
Using a 96-well pipettor, 25 μl from the “compound” plate was added to each well of the cell plate. The assay was started by adding 25 μl of the ^3H-GABA working solution. The plate was incubated at room temperature for 15 minutes. The assay was stopped by washing the cells four times with ice-cold HBSS buffer using a ELX 405 plate washer (100 μl buffer/well/wash) having an angled buffer dispenser.
Scintillation fluid (200 μl) (Optiphase Supermix (Perkin Elmer) was added to each well, and the plate was covered with a 96-well adhesive plate cover and placed on a shaker for 10 minutes. The plates were counted on a 96-well plate scintillation counter for 60 sec/well. The data were analyzed using a sigmoidal dose response curve-fitting program ((Prism, GraphPad, Inc, San Diego, Calif.; equation: one-site competition).
FIG. 7 depicts the results of a competition experiment using HEK-TREx-TAUT1 cells. ^3H-taurine was used as the substrate and unlabeled taurine was used as the competitor. The competition experiment was performed as described in Example 7. Non-specific uptake was determined by measuring the uptake into cells not induced to express the transporter (“no tet”). […] In control cells, uptake of labeled taurine remained at background levels and was largely unaffected by an excess of unlabeled taurine.
These four compounds, IAA, R,S-Baclofen, GPA, and GABA, were tested in both competition and direct uptake assays. One notable difference in the competition assay format compared to the literature is that ^3H-GABA was used, rather than ^3H-taurine, as the radiolabel. […] Therefore, to develop a competition assay that is as sensitive as possible, ^3H-GABA, a substrate with a much […] affinity, was used.

SMILES	IC50 [1]	IC50 (TAUT1)	pIC50 (TAUT1)
NCCCC(=O)O [GABA, γ-aminobutyric acid]	500 µM	54 µM	–
N=C(N)NCCC(=O)O [GPA]	120 µM	24 µM	4.7
O=C(O)Cc1c[nH]cn1 [IAA, 4-imidazole acetic acid]	–	56 µM	–
NCC(CC(=O)O)c1ccc(Cl)cc1 (centres unmarked) [R,S-Baclofen]	–	1100 µM	3.0
